Measured values taken from patent US8450522B2, “Conformationally constrained carboxylic acid derivatives useful for treating metabolic disorders” (Amgen Inc., priority 2008, dated 2013).
pEC50: −log10 of the molar value.

Target: GPR40 (Homo sapiens, UniProt O14842)
Assay: Cell-based aequorin assay (CHO cells stably transfected with GPR40 and aequorin)
Parameters: expressed in transfected cells
Details: activation of human GPR40, CHO cells, 0.01% HSA
Protocol: Briefly, the Aequorin assays were performed on doubly stable CHO cells expressing GPR40 and Aequorin DNA. […] The luminescence was recorded over a period of 20 seconds with a Microlumat luminometer (Berthold).
Cell-based aequorin assays were employed to characterize the modulatory activity of compounds on the GPR40 signaling pathway. In an exemplary assay, CHO cells were stably transfected with both GPR40 and Aequorin (Euroscreen). Cells were detached from the tissue culture dish with 2 mL of trypsin (0.25% (w/v)). Trypsinization was halted with 28 mL of Hanks Buffered Salt Solution containing 20 mM Hepes (H/HBSS) and 0.01% fatty acid-free human serum albumin (HSA). Coelantrazine is added to 1 ug/mL, and the cells were incubated for 2 hours at room temperature. Compounds were dissolved in DMSO for preparation of 10 mM stock solutions. Compounds were diluted in H/HBSS containing 0.01% HSA. Serial dilutions of the test compounds were prepared to determine dose response.
Aequorin luminescence measurements were made using an EG&G Berthold 96-well luminometer, and the response was measured over a 20 second interval after cells and compounds were mixed. The maximum relative light units was plotted to determine dose response. The EC50 (effective concentration to reach 50% maximal response) was determined from the dose response plot.

Chain of GPR40 (O14842 whole entry): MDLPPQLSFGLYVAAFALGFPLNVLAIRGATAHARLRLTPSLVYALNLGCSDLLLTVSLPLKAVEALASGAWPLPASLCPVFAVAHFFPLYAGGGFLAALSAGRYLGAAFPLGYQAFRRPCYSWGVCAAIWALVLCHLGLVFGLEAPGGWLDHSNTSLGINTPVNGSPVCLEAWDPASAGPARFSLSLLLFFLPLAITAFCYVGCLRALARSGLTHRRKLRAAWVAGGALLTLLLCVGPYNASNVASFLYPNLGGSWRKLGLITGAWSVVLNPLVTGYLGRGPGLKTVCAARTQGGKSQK

pEC50	Structure (SMILES)
6.00 to 7.00	COc1ccc(F)c(-c2ccc(COc3ccc4c(c3)[C@@H](C(C)(C)C(=O)O)CC4)cc2C(C)(C)C)c1 (single isomer, unassigned) [Example 12, 2-((1S)-6-(((2-(1,1-Dimethylethyl)-2′-fluoro-5′-(methyloxy)-1,1′-biphenyl-4-yl)methyl)oxy)-2,3-dihydro-1H-inden-1-yl)-2-methylpropanoic acid or 2-((1R)-6-(((2-(1,1-Dimethylethyl)-2′-fluoro-5′-(methyloxy)-1,1′-biphenyl-4-yl)methyl)oxy)-2,3-dihydro-1H-inden-1-yl)-2-methylpropanoic acid]
5.00 to 6.00	COc1ccc(F)c(-c2ccc(COc3ccc4c(c3)[C@@H](CC(=O)O)C(C)(C)C4)cc2C(C)(C)C)c1 (single isomer, unassigned) [Example 8, ((1S)-6-(((2-(1,1-Dimethylethyl)-2′-fluoro-5′-(methyloxy)-1,1′-biphenyl-4-yl)methyl)oxy)-2,2-dimethyl-2,3-dihydro-1H-inden-1-yl)acetic acid or ((1R)-6-(((2-(1,1-dimethylethyl)-2′-fluoro-5′-(methyloxy)-1,1′-biphenyl-4-yl)methyl)oxy)-2,2-dimethyl-2,3-dihydro-1H-inden-1-yl)acetic acid]
6.00 to 7.00	COc1ccc(F)c(-c2ccc(COc3ccc4c(c3)[C@H]([C@@H](C)C(=O)O)CC4)cc2C(C)(C)C)c1 [Example 13]
5.00 to 6.00	COc1cc(-c2ccc(COc3ccc4c(c3F)C(C)(CC(=O)O)CC4)cc2C(OC)C(C)(C)C)c(F)cn1 [Example 41, {(S)-7-Fluoro-6-[4-(5-fluoro-2-methoxy-pyridin-4-yl)-3-((S)-1-methoxy-2,2-dimethyl-propyl)-benzyloxy]-1-methyl-indan-1-yl}-acetic acid or stereoisomer thereof]
6.00 to 7.00	COc1ccc(F)c(-c2ccc(COc3ccc4c(c3)[C@@H](CC(=O)O)C(C)(C)C4)cc2C2=CCCC2(C)C)c1 (single isomer, unassigned) [Example 9, ((1S)-6-(((2-(5,5-Dimethyl-1-cyclopenten-1-yl)-2′-fluoro-5′-(methyloxy)-1,1′-biphenyl-4-yl)methyl)oxy)-2,2-dimethyl-2,3-dihydro-1H-inden-1-yl)acetic acid or ((1R)-6-(((2-(5,5-dimethyl-1-cyclopenten-1-yl)-2′-fluoro-5′-(methyloxy)-1,1′-biphenyl-4-yl)methyl)oxy)-2,2-dimethyl-2,3-dihydro-1H-inden-1-yl)acetic acid]
5.00 to 6.00	COc1ccc(F)c(-c2ccc(COc3ccc4c(c3)C[C@@H]4CC(=O)O)cc2C(C)(C)C)c1 (single isomer, unassigned) [Example 29, ((7S)-3-((2′-Fluoro-5′-methoxy-2-(2-methyl-2-propanyl)-4-biphenylyl)methoxy)bicycle[4.2.0]octa-1,3,5-trien-7-yl)acetic acid or ((7R)-3-((2′-fluoro-5′-methoxy-2-(2-methyl-2-propanyl)-4-biphenylyl)methoxy)bicycle[4.2.0]octa-1,3,5-trien-7-yl)acetic acid]
5.00 to 6.00	COc1ccc(F)c(-c2ccc(COc3ccc4c(c3)CC[C@@H]4CC(=O)O)cc2C(C)(C)C)c1 (single isomer, unassigned) [Example 31, ((1S)-5-((2′-Fluoro-5′-methoxy-2-(2-methyl-2-propanyl)-4-biphenylyl)methoxy)-2,3-dihydro-1H-inden-1-yl)acetic acid or ((1R)-5-((2′-fluoro-5′-methoxy-2-(2-methyl-2-propanyl)-4-biphenylyl)methoxy)-2,3-dihydro-1H-inden-1-yl)acetic acid]
5.00 to 6.00	C=CC(C)(C)[C@H](O)c1cc(COc2ccc3c(c2)[C@@H]([C@@H](C)C(=O)O)CC3)ccc1-c1cc(OC)ccc1F (single isomer, unassigned) [Example 28, 2-((1R)-6-(((2′-Fluoro-2-((1S)-1-hydroxy-2,2-dimethyl-3-butenyl)-5′-(methyloxy)-1,1′-biphenyl-4-yl)methyl)oxy)-2,3-dihydro-1H-inden-1-yl)propanoic acid or stereoisomer thereof]
5.00 to 6.00	COc1ccc(F)c(-c2ccc(COc3ccc4c(c3)[C@H](CC(=O)O)C4)cc2C(C)(C)C)c1 (single isomer, unassigned) [Example 3, (R)-2-(5-(3-t-Butyl-4-(2-fluoro-5-methoxyphenyl)benzyloxy)-1,2-dihydrocyclobutabenzen-1-yl)acetic acid or (S)-2-(5-(3-t-butyl-4-(2-fluoro-5-methoxyphenyl)benzyloxy)-1,2-dihydrocyclobutabenzen-1-yl)acetic acid]
5.00 to 6.00	CCC(C)(C)[C@H](OC)c1cc(COc2ccc3c(c2)[C@@H]([C@@H](C)C(=O)O)CC3)ccc1-c1cc(OC)ccc1F (single isomer, unassigned) [Example 27, 2-((1R)-6-(((2-((1R)-2,2-Dimethyl-1-(methyloxy)butyl)-2′-fluoro-5′-(methyloxy)-1,1′-biphenyl-4-yl)methyl)oxy)-2,3-dihydro-1H-inden-1-yl)propanoic acid (27) or stereoisomer thereof]
5.00 to 6.00	COc1cccc(-c2ccc(COc3ccc4c(c3)[C@@H](CC(=O)O)CC4)cc2C(C)(C)C)c1 (single isomer, unassigned) [Example 25, ((1R)-6-(((2-(1,1-Dimethylethyl)-3′-(methyloxy)-1,1′-biphenyl-4-yl)methyl)oxy)-2,3-dihydro-1H-inden-1-yl)acetic acid or ((1S)-6-(((2-(1,1-dimethylethyl)-3′-(methyloxy)-1,1′-biphenyl-4-yl)methyl)oxy)-2,3-dihydro-1H-inden-1-yl)acetic acid]
6.00 to 7.00	COc1ccc(F)c(-c2ccc(COc3ccc4c(c3)[C@@H](C(C)(C)C(=O)O)CC4)cc2C2=CCCC2(C)C)c1 (single isomer, unassigned) [Example 11, 2-((1S)-6-(((2-(5,5-Dimethyl-1-cyclopenten-1-yl)-2′-fluoro-5′-(methyloxy)-1,1′-biphenyl-4-yl)methyl)oxy)-2,3-dihydro-1H-inden-1-yl)-2-methylpropanoic acid or 2-((1R)-6-(((2-(5,5-dimethyl-1-cyclopenten-1-yl)-2′-fluoro-5′-(methyloxy)-1,1′-biphenyl-4-yl)methyl)oxy)-2,3-dihydro-1H-inden-1-yl)-2-methylpropanoic acid]
5.00 to 6.00	COc1ccc(F)c(-c2ccc(COc3ccc4c(c3)CC[C@@H]4CC(=O)O)cc2C(C)(C)C)c1 (single isomer, unassigned) [Example 5, (R)-Methyl 2-(5-(3-t-butyl-4-(2-fluoro-5-methoxyphenyl)benzyloxy)-2,3-dihydro-1H-inden-1-yl)acetic acid or (S)-methyl 2-(5-(3-t-butyl-4-(2-fluoro-5-methoxyphenyl)benzyloxy)-2,3-dihydro-1H-inden-1-yl)acetic acid]

Structure (SMILES)	pEC50
COc1ccc(F)c(-c2ccc(COc3ccc4c(c3)CC[C@H]4CC(=O)O)cc2C(C)(C)C)c1 (single isomer, unassigned) [Example 32, ((1S)-5-((2′-Fluoro-5′-methoxy-2-(2-methyl-2-propanyl)-4-biphenylyl)methoxy)-2,3-dihydro-1H-inden-1-yl)acetic acid or ((1R)-5-((2′-fluoro-5′-methoxy-2-(2-methyl-2-propanyl)-4-biphenylyl)methoxy)-2,3-dihydro-1H-inden-1-yl)acetic acid]	5.00 to 6.00
COc1ccc(F)c(-c2ccc(COc3ccc4c(c3)C[C@H]4CC(=O)O)cc2C(C)(C)C)c1 (single isomer, unassigned) [Example 30, ((7S)-3-((2′-Fluoro-5′-methoxy-2-(2-methyl-2-propanyl)-4-biphenylyl)methoxy)bicycle[4.2.0]octa-1,3,5-trien-7-yl)acetic acid or ((7R)-3-((2′-fluoro-5′-methoxy-2-(2-methyl-2-propanyl)-4-biphenylyl)methoxy)bicycle[4.2.0]octa-1,3,5-trien-7-yl)acetic acid]	5.00 to 6.00
COc1ccc(F)c(-c2ccc(COc3ccc4c(c3)[C@H](CC(=O)O)C(C)(C)C4)cc2C(C)(C)C)c1 (single isomer, unassigned) [Example 10, ((1R)-6-(((2-(1,1-Dimethylethyl)-2′-fluoro-5′-(methyloxy)-1,1′-biphenyl-4-yl)methyl)oxy)-2,2-dimethyl-2,3-dihydro-1H-inden-1-yl)acetic acid or ((1S)-6-(((2-(1,1-dimethylethyl)-2′-fluoro-5′-(methyloxy)-1,1′-biphenyl-4-yl)methyl)oxy)-2,2-dimethyl-2,3-dihydro-1H-inden-1-yl)acetic acid]	5.00 to 6.00
COc1cc(-c2ccc(COc3ccc4c(c3)[C@H](CC(=O)O)CCC4)cc2[C@H]2CCCC2(C)C)c(F)cn1 (single isomer, unassigned) [Example 47]	5.00 to 6.00
COc1cc(-c2ccc(COc3ccc4c(c3)[C@](C)(CC(=O)O)CCC4)cc2[C@H]2CCCC2(C)C)c(F)cn1 (single isomer, unassigned) [Example 49]	6.00 to 7.00
COc1ccc(F)c(-c2ccc(COc3ccc4c(c3)[C@@H](CC(=O)O)C4)cc2C(C)(C)C)c1 (single isomer, unassigned) [Example 4, ((7R)-4-(((2-(1,1-Dimethylethyl)-2′-fluoro-5′-(methyloxy)-1,1′-biphenyl-4-yl)methyl)oxy)bicyclo[4.2.0]octa-1,3,5-trien-7-yl)acetic acid or ((7R)-4-(((2-(1,1-dimethylethyl)-2′-fluoro-5′-(methyloxy)-1,1′-biphenyl-4-yl)methyl)oxy)bicyclo[4.2.0]octa-1,3,5-trien-7-yl)acetic acid]	< 5.00
